Experimental data taken from the NIST ThermoML archive (doi:10.1021/je700294p).
± gives the expanded uncertainty stated by the source.

Key:
[1] = xn = mol fraction of the nth substance listed; conditions: 101 kPa, Liquid
[2] = excess molar enthalpy (molar enthalpy of mixing); xn = mol fraction of the nth substance listed; conditions: 101 kPa, Liquid

CCCC[n+]1cccc(C)c1.F[B-](F)(F)F [1-butyl-3-methylpyridinium tetrafluoroborate] + CCCCO
Conditions	excess molar enthalpy [kcal/mol]	mass density [kg/m3]
[1], 298.15 K, x1 = 0.0166	–	819.7 ± 0.7
[1], 298.15 K, x1 = 0.7641	–	1136.6 ± 0.8
[1], 298.15 K, x1 = 0.8166	–	1147.7 ± 0.8
[1], 298.15 K, x1 = 0.8558	–	1155.7 ± 0.8
[1], 298.15 K, x1 = 0.904	–	1165.1 ± 0.9
[1], 318.15 K, x1 = 0.0191	–	805.5 ± 0.7
[1], 318.15 K, x1 = 0.6961	–	1107.5 ± 0.8
[1], 318.15 K, x1 = 0.7777	–	1125.9 ± 0.8
[1], 318.15 K, x1 = 0.8535	–	1141.6 ± 0.9
[1], 318.15 K, x1 = 0.9084	–	1152.1 ± 0.9
[1], 318.15 K, x1 = 0.9479	–	1159.4 ± 0.9
[2], 318.15 K, x1 = 0.0098	0.0361 ± 0.00143	–
[2], 318.15 K, x1 = 0.025	0.0684 ± 0.00215	–
[2], 318.15 K, x1 = 0.0464	0.138 ± 0.00359	–
[2], 318.15 K, x1 = 0.3603	0.681 ± 0.0141	–
[2], 318.15 K, x1 = 0.3932	0.684 ± 0.0141	–
[2], 318.15 K, x1 = 0.445	0.677 ± 0.0141	–
[2], 318.15 K, x1 = 0.5101	0.652 ± 0.0136	–
[2], 318.15 K, x1 = 0.5852	0.591 ± 0.0122	–
[2], 318.15 K, x1 = 0.6705	0.503 ± 0.0105	–
[2], 318.15 K, x1 = 0.7667	0.378 ± 0.00813	–
[2], 318.15 K, x1 = 0.8531	0.264 ± 0.00574	–
[2], 318.15 K, x1 = 0.9346	0.125 ± 0.00311	–

CCCC[n+]1cccc(C)c1.F[B-](F)(F)F [1-butyl-3-methylpyridinium tetrafluoroborate] + CCO
Conditions	excess molar enthalpy [kcal/mol]	mass density [kg/m3]
[1], 298.15 K, x1 = 0.0518	–	851.1 ± 0.8
[1], 298.15 K, x1 = 0.0719	–	872.9 ± 0.7
[1], 298.15 K, x1 = 0.1054	–	905.6 ± 0.7
[1], 298.15 K, x1 = 0.1999	–	975.5 ± 0.6
[1], 298.15 K, x1 = 0.2539	–	1006.2 ± 0.5
[1], 298.15 K, x1 = 0.3	–	1028.2 ± 0.6
[1], 298.15 K, x1 = 0.4054	–	1068.6 ± 0.6
[1], 298.15 K, x1 = 0.5082	–	1098.9 ± 0.7
[1], 298.15 K, x1 = 0.5895	–	1118 ± 0.7
[1], 298.15 K, x1 = 0.664	–	1133 ± 0.8
[1], 298.15 K, x1 = 0.7275	–	1144.5 ± 0.8
[1], 298.15 K, x1 = 0.7682	–	1151 ± 0.8
[1], 318.15 K, x1 = 0.0401	–	821.1 ± 0.8
[1], 318.15 K, x1 = 0.0671	–	851 ± 0.8
[1], 318.15 K, x1 = 0.0992	–	882.7 ± 0.7
[1], 318.15 K, x1 = 0.1497	–	924.5 ± 0.6
[1], 318.15 K, x1 = 0.2531	–	989.5 ± 0.5
[1], 318.15 K, x1 = 0.3062	–	1015.1 ± 0.5
[1], 318.15 K, x1 = 0.4041	–	1053 ± 0.6
[1], 318.15 K, x1 = 0.5002	–	1082.2 ± 0.7
[1], 318.15 K, x1 = 0.5998	–	1106.3 ± 0.8
[1], 318.15 K, x1 = 0.6632	–	1118.8 ± 0.8
[1], 318.15 K, x1 = 0.7118	–	1127.7 ± 0.8
[1], 318.15 K, x1 = 0.7904	–	1141 ± 0.9
[2], 298.15 K, x1 = 0.0052	0.0354 ± 0.00263	–
[2], 298.15 K, x1 = 0.0159	0.0989 ± 0.00311	–
[2], 298.15 K, x1 = 0.0279	0.148 ± 0.00382	–
[2], 298.15 K, x1 = 0.0457	0.203 ± 0.00478	–
[2], 298.15 K, x1 = 0.0691	0.26 ± 0.00574	–
[2], 298.15 K, x1 = 0.0972	0.312 ± 0.00669	–
[2], 298.15 K, x1 = 0.1132	0.338 ± 0.00741	–
[2], 298.15 K, x1 = 0.1263	0.362 ± 0.00789	–
[2], 298.15 K, x1 = 0.128	0.368 ± 0.00789	–
[2], 298.15 K, x1 = 0.145	0.396 ± 0.00837	–
[2], 298.15 K, x1 = 0.1585	0.405 ± 0.0086	–
[2], 298.15 K, x1 = 0.1639	0.418 ± 0.00884	–
[2], 298.15 K, x1 = 0.1838	0.445 ± 0.00932	–
[2], 298.15 K, x1 = 0.2062	0.47 ± 0.01	–
[2], 298.15 K, x1 = 0.2305	0.495 ± 0.0105	–
[2], 298.15 K, x1 = 0.2577	0.515 ± 0.0108	–
[2], 298.15 K, x1 = 0.2878	0.531 ± 0.0112	–
[2], 298.15 K, x1 = 0.3217	0.544 ± 0.0115	–
[2], 298.15 K, x1 = 0.3623	0.546 ± 0.0115	–
[2], 298.15 K, x1 = 0.4085	0.527 ± 0.011	–
[2], 298.15 K, x1 = 0.4689	0.484 ± 0.0103	–
[2], 298.15 K, x1 = 0.5396	0.425 ± 0.00908	–
[2], 298.15 K, x1 = 0.6277	0.348 ± 0.00741	–
[2], 298.15 K, x1 = 0.7386	0.257 ± 0.0055	–
[2], 298.15 K, x1 = 0.8712	0.14 ± 0.00335	–
[2], 298.15 K, x1 = 0.9405	0.0727 ± 0.00191	–
[2], 318.15 K, x1 = 0.0123	0.0626 ± 0.00239	–
[2], 318.15 K, x1 = 0.0273	0.129 ± 0.00335	–
[2], 318.15 K, x1 = 0.0472	0.201 ± 0.00478	–
[2], 318.15 K, x1 = 0.0704	0.269 ± 0.00598	–
[2], 318.15 K, x1 = 0.098	0.342 ± 0.00741	–
[2], 318.15 K, x1 = 0.1279	0.411 ± 0.00884	–
[2], 318.15 K, x1 = 0.1612	0.475 ± 0.01	–
[2], 318.15 K, x1 = 0.1789	0.508 ± 0.0108	–
[2], 318.15 K, x1 = 0.2034	0.544 ± 0.0115	–
[2], 318.15 K, x1 = 0.2335	0.577 ± 0.012	–
[2], 318.15 K, x1 = 0.2681	0.605 ± 0.0127	–
[2], 318.15 K, x1 = 0.3063	0.627 ± 0.0129	–
[2], 318.15 K, x1 = 0.3498	0.644 ± 0.0134	–
[2], 318.15 K, x1 = 0.4055	0.645 ± 0.0134	–
[2], 318.15 K, x1 = 0.4787	0.615 ± 0.0127	–
[2], 318.15 K, x1 = 0.5648	0.549 ± 0.0115	–
[2], 318.15 K, x1 = 0.6576	0.451 ± 0.00956	–
[2], 318.15 K, x1 = 0.7668	0.326 ± 0.00693	–
[2], 318.15 K, x1 = 0.881	0.184 ± 0.0043	–
